For 38 molecules, IC50 results are on record in ChEMBL document CHEMBL1136358, “Discovery and initial SAR of 2-amino-5-carboxamidothiazoles as inhibitors of the Src-family kinase p56(Lck)” (Bioorg Med Chem Lett, 2003).

For assay [1], the target named is T1, Tyrosine-protein kinase Lck (Homo sapiens, UniProt P06239).
Description: Inhibitory activity human Lck(hLck) kinase
Assay [2] concerns the target T2, Proto-oncogene tyrosine-protein kinase LCK (Mus musculus, UniProt P06240). The assay is described as follows: In vitro inhibition of murine Lck kinase.
Assay [3] addresses T1, Tyrosine-protein kinase Lck. Description: Inhibition of human p56 Lck tyrosine kinase.
Assay [4] concerns the target T2, Proto-oncogene tyrosine-protein kinase LCK. The assay is described as follows: Inhibition of mouse p56 Lck tyrosine kinase.
For assay [5] the target is unchanged. The assay is described as follows: Inhibition of mouse Lck(mLck) kinase at 50 uM (Inactive).
Assay [6] addresses T1, Tyrosine-protein kinase Lck. Description: Inhibition of human Lck(hLck) kinase at 50 uM (Inactive).
In assay [7] the target is Tyrosine-protein kinase HCK (Homo sapiens, UniProt P08631). Description: Inhibition of Hck kinase.
Chain of Tyrosine-protein kinase HCK (P08631 whole entry): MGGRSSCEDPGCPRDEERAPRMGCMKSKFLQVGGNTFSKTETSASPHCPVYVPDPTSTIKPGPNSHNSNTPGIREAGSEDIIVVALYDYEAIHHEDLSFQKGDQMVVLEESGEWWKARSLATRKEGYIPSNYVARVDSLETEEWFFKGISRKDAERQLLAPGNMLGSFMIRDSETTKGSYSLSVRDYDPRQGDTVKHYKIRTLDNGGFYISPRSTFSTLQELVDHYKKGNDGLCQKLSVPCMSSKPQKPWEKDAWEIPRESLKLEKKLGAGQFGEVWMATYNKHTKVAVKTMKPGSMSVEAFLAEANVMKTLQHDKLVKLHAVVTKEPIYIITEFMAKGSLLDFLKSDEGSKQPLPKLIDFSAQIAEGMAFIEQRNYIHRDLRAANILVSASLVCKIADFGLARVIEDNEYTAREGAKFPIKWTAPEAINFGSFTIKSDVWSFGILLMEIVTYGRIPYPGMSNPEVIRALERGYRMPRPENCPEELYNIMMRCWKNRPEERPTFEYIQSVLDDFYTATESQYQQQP
Assay [8] concerns the target Cyclin-dependent kinase 2 (Homo sapiens, UniProt P24941). The assay is described as follows: Inhibition of CDK2 kinase.
Assay [9] deals with T1, Tyrosine-protein kinase Lck. The assay is described as follows: Inhibition of Lck kinase.
Assay [10] deals with T3, Tyrosine-protein kinase JAK3 (Homo sapiens, UniProt P52333).
T3 sequence (P52333 whole entry): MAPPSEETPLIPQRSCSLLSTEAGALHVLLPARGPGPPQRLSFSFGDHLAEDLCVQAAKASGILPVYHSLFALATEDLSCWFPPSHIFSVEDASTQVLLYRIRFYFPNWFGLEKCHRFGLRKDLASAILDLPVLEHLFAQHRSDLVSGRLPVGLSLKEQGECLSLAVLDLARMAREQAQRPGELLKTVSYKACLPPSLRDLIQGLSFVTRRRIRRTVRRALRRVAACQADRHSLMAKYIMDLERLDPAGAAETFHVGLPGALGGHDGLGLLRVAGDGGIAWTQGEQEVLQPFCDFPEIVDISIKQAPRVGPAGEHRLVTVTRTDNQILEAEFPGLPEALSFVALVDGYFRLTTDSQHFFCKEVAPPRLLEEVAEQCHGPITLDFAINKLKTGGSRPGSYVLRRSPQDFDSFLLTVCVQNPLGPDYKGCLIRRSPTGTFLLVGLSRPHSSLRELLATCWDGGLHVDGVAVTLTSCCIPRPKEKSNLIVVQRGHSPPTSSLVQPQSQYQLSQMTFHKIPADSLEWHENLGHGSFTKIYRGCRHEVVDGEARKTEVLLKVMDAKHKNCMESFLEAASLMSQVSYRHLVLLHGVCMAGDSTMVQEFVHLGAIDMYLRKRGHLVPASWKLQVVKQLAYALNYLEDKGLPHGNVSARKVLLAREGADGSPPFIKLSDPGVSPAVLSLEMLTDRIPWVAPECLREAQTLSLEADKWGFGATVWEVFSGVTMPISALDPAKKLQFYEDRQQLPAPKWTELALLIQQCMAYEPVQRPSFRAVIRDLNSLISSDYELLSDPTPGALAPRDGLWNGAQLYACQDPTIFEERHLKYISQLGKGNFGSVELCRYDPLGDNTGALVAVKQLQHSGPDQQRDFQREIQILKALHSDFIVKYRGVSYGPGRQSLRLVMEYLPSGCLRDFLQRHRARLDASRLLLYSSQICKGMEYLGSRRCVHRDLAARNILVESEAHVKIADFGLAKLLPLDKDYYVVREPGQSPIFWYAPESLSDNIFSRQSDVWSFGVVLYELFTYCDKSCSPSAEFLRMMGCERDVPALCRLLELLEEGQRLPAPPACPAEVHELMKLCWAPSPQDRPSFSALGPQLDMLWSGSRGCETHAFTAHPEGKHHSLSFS
Description: Inhibition of Jak3 kinase.

For assay [11], the target named is Tyrosine-protein kinase Fyn (Homo sapiens, UniProt P06241). The assay is described as follows: Inhibition of Fyn kinase.
Chain of Tyrosine-protein kinase Fyn (P06241 whole entry): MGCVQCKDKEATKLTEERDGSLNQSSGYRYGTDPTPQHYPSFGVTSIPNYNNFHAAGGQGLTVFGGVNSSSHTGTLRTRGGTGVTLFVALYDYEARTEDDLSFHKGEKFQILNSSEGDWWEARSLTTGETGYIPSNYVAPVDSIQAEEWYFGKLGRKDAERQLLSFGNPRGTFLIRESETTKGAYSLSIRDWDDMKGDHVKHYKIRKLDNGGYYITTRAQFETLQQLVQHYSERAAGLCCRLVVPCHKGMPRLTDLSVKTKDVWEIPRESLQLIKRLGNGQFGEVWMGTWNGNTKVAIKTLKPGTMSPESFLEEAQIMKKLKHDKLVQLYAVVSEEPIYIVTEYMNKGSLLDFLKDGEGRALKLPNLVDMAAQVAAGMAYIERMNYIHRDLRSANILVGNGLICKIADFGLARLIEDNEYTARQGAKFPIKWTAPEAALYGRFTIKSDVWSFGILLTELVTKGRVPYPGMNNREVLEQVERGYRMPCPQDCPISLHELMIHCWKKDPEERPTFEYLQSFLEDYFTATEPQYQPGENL
Assay [12] has as its target Proto-oncogene tyrosine-protein kinase Src (Homo sapiens, UniProt P12931). The assay is described as follows: Inhibition of Src kinase.
Assay [13] concerns the target Receptor tyrosine-protein kinase erbB-2 (Homo sapiens, UniProt P04626). The assay is described as follows: Inhibition of HER2 kinase.
Assay [14] has as its target Fibroblast growth factor receptor (Homo sapiens, UniProt P22607+P11362+P22455+P21802). The assay is described as follows: Inhibition of FGF receptor. The format is protein assay.
The target in another assay is Focal adhesion kinase 1 (Homo sapiens, UniProt Q05397). The assay is described as follows: Inhibition of FAK kinase.
Chain of Focal adhesion kinase 1 (Q05397 whole entry): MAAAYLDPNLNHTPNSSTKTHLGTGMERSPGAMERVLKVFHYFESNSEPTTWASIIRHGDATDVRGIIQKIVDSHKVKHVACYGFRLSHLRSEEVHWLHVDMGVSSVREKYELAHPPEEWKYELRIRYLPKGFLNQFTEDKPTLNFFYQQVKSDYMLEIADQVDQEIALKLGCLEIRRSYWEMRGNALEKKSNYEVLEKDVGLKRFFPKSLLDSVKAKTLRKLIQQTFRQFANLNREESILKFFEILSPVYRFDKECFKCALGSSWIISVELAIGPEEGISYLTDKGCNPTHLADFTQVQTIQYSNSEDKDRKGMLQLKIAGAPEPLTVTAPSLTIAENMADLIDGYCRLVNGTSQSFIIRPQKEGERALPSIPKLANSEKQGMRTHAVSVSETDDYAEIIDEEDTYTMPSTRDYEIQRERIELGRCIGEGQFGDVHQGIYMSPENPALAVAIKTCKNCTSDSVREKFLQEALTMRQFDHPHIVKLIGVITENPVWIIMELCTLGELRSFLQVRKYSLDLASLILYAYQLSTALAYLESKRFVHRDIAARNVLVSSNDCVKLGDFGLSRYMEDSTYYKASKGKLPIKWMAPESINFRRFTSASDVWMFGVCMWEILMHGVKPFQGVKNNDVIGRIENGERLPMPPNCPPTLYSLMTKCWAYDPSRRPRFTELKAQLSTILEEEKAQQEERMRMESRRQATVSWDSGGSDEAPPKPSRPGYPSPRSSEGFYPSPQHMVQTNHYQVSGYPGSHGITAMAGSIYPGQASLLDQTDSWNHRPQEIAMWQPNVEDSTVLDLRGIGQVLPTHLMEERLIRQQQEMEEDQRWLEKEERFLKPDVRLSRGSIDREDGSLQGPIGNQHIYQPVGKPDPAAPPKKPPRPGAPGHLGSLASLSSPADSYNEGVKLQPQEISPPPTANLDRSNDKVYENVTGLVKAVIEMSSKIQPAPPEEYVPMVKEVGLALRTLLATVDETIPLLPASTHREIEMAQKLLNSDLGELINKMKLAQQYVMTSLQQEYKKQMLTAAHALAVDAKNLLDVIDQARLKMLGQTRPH
Assay [15] addresses T1, Tyrosine-protein kinase Lck. The assay is described as follows: Inhibition of human Lck(hLck) kinase.

T1 sequence (P06239 whole entry): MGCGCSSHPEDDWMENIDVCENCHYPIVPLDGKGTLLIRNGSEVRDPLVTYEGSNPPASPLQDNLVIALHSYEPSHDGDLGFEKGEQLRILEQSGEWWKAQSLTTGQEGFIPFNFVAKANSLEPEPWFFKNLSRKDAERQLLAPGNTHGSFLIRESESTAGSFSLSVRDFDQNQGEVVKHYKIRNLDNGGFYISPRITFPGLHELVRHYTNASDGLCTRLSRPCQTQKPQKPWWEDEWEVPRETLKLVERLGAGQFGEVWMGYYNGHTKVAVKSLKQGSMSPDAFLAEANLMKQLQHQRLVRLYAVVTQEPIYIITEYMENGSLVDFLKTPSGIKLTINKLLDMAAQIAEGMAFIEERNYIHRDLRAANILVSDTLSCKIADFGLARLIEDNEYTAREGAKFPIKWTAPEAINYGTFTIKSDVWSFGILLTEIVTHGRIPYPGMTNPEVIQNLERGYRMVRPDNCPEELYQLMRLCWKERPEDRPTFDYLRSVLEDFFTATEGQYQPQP
T2 sequence (P06240 whole entry): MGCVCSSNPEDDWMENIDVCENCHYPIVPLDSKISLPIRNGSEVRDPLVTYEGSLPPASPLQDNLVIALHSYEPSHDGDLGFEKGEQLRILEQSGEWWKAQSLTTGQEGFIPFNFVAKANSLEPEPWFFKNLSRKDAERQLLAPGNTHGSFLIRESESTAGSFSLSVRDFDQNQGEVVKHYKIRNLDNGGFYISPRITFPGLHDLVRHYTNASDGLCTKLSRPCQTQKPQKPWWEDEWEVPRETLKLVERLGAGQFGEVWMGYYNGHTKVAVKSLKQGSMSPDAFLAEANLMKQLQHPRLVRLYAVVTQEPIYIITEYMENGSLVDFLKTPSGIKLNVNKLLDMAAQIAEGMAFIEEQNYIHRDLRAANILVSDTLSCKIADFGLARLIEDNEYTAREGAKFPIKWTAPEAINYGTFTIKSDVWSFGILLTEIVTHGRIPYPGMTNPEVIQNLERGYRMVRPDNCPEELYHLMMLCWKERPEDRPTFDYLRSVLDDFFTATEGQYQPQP
Chain of Proto-oncogene tyrosine-protein kinase Src (P12931 2-536 limits assumed): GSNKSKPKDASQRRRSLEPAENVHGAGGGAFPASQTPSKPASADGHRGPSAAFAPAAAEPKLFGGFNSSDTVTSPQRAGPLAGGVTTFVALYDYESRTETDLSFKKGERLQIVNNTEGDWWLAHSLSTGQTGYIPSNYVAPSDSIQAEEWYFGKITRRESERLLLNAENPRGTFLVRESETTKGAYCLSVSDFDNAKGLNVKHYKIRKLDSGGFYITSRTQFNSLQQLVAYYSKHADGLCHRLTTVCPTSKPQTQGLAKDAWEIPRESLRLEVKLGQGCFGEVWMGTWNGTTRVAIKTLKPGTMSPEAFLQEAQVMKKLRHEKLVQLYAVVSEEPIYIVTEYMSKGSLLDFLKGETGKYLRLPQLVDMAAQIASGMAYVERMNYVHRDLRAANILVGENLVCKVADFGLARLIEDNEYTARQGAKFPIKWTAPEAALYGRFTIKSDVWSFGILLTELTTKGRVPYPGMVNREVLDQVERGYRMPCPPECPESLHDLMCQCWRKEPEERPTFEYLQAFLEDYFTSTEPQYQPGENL
Chain of Receptor tyrosine-protein kinase erbB-2 (P04626 whole entry): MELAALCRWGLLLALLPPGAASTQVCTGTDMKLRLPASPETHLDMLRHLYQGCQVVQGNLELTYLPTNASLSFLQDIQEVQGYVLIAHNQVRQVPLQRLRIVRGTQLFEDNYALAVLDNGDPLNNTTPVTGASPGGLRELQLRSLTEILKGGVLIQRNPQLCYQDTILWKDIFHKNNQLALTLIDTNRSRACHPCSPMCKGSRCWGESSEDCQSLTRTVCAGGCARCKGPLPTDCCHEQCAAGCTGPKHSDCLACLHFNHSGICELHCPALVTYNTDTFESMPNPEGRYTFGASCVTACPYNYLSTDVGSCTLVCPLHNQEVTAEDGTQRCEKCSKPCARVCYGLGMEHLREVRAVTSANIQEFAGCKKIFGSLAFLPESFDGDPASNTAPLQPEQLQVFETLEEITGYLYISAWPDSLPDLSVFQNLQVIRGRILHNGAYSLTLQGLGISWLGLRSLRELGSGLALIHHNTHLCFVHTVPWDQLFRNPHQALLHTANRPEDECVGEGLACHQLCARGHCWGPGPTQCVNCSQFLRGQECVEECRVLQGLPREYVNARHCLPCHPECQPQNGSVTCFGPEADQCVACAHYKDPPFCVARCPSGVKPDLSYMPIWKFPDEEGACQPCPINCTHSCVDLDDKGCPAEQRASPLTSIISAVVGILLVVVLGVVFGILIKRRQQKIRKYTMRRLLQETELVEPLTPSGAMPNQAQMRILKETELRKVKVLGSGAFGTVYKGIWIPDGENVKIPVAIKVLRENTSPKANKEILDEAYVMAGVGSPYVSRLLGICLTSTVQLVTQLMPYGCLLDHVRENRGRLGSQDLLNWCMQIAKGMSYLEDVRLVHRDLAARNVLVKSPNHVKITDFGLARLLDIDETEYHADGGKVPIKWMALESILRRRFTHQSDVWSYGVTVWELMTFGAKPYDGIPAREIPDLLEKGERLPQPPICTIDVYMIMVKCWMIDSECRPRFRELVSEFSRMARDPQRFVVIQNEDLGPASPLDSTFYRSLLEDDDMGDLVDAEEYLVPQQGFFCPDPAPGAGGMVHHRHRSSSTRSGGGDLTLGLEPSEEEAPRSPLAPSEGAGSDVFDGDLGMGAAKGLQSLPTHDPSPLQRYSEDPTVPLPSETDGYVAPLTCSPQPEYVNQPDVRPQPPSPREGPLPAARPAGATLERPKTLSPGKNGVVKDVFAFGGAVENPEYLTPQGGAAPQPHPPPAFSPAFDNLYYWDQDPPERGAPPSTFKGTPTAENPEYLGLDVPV

As usually defined, the IC50 is the concentration needed to halve the response being measured. A low value points to greater potency in that assay. On to `Cc1cccc(Cl)c1NC(=O)c1sc(NC(=O)c2ccco2)nc1C`, for which, in [1], it took 710 nM to reach half-maximal inhibition (IC50).
Same read-out and setting: under `Cc1cccc(Cl)c1NC(=O)c1sc(NC(=O)C2CC2)nc1C` stands 1400 nM.
Take `Cc1cc(NC(=O)c2sc(NC(=O)OC(C)(C)C)nc2C)c(C)[nH]1`: the IC50 in [2] is more than 50 µM.
Still for that read-out and setting: next, `Cc1ccccc1NC(=O)c1sc(NC(=O)OC(C)(C)C)nc1C`: 45.7 µM.
In turn, `Cc1cc(C)c(NC(=O)c2sc(NC(=O)OC(C)(C)C)nc2C(F)(F)F)c(C)c1` showed an IC50 in assay [1] of more than 30000 nM.
On to `COC(=O)Nc1nc(C)c(C(=O)Nc2c(C)cc(C)cc2C)s1`, for which the IC50 in assay [2] is 0.72 µM; in [1], 700 nM.
Take `Cc1nc(NC(=O)OC(C)(C)C)sc1C(=O)NCC(C)(C)C`: the IC50 in [2] was more than 50 µM.
As for `Cc1cccc(C)c1NC(=O)c1sc(NC(=O)OC(C)(C)C)nc1C`, the IC50 in assay [3] was 4.4 µM; in assay [4], 7.5 µM.
In assay [2], `Cc1nc(NC(=O)OC(C)(C)C)sc1C(=O)N1CCN(C=O)CC1` registered an IC50 of more than 50 µM.
For the molecule `CCCCNC(=O)Nc1nc(C)c(C(=O)Nc2c(C)cccc2Cl)s1`, the IC50 in [1] was 620 nM.
In turn, `Cc1cc(C)c(NC(=O)c2cnc(NC(=O)OC(C)(C)C)s2)c(C)c1` showed an IC50 in [1] of more than 30000 nM.
Take `Cc1cc(C)c(NC(=O)c2sc(NC(=O)c3ccccc3)nc2C)c(C)c1`: the IC50 in assay [2] is 0.32 µM; in [1] it was 800 nM.
Turning to `COc1cc(NC(=O)c2sc(NC(=O)OC(C)(C)C)nc2C)cc(C(F)(F)F)c1`, the IC50 in [2] was more than 50 µM.
Consider `CCc1nc(NC(=O)OC(C)(C)C)sc1C(=O)Nc1c(C)cc(C)cc1C`, for which the IC50 in [1] was more than 30000 nM.
Turning to `Cc1nc(NC(=O)OC(C)(C)C)sc1C(=O)NC(C)C(C)C` (centres undefined), the IC50 is more than 50 µM in [2] and more than 50000 nM in assay [1].
For `CCCCNC(=O)Nc1nc(C)c(C(=O)Nc2c(C)cc(C)cc2C)s1` the same measures were 0.07 µM and 30 nM.
`Cc1cc(C)c(NC(=O)c2sc(N(C)C(=O)OC(C)(C)C)nc2C)c(C)c1`: the IC50 entry in assay [5] and in [6] was “Not Active” each time.
Consider `Cc1cccc(Cl)c1NC(=O)c1cnc(NC(=O)c2ccccc2)s1`, for which the concentration for half-maximal inhibition (IC50) in [1] amounted to 890 nM.
On to `Cc1cccc(Cl)c1NC(=O)c1cnc(NC(=O)C2CC2)s1`, for which the concentration for half-maximal inhibition (IC50) in assay [7] is 310 nM; in assay [8] it was more than 25 µM; in [9] it was 35 nM; in [10] it was 44 nM; in assay [11], 71 nM; in assay [12], 10 nM. Moreover, the IC50 was more than 25 µM in [13], 35 nM in assay [1], more than 25 µM in [14] and more than 25 µM at Focal adhesion kinase 1.
`Cc1cc(C)c(NC(=O)c2sc(NC(=O)c3ccco3)nc2C)c(C)c1`: it took 360 nM to reach half-maximal inhibition in [1] (IC50).
In the case of `COc1cccc(C)c1NC(=O)c1sc(NC(=O)OC(C)(C)C)nc1C`, the IC50 in [2] came to 24.3 µM.
The molecule `Cc1nc(NC(=O)OC(C)(C)C)sc1C(=O)Nc1c(Cl)cccc1Cl` yielded an IC50 in [15] of 12.5 µM.
Regarding `Cc1cc(C)c(NC(=O)c2sc(N)nc2C)c(C)c1`, the IC50 in assay [3] stood at 5 µM; in assay [4] it was 6.6 µM.
For `Cc1cccc(Cl)c1NC(=O)c1sc(NC(=O)OC(C)(C)C)nc1C` the same measures were 28 µM and 9.6 µM.
Molecule `Cc1nc(NC(=O)OC(C)(C)C)sc1C(=O)Nc1c(C(C)C)cccc1C(C)C` displayed an IC50 in [2] of more than 50 µM.
With `Cc1cccc(C(C)C)c1NC(=O)c1sc(NC(=O)OC(C)(C)C)nc1C`, the IC50 in assay [2] stood at 40.3 µM.
The same measure, in the same setting: under `Cc1nc(NC(=O)OC(C)(C)C)sc1C(=O)Nc1ccc(Cl)cc1Cl` stands more than 50 µM.
In turn, `Cc1cccc(Cl)c1NC(=O)c1sc(NC(=O)c2ccccc2)nc1C` registered a 50% inhibitory concentration (IC50) in assay [1] of 4500 nM. This lies in the single-digit micromolar range.
As for `CNC(=O)Nc1nc(C)c(C(=O)Nc2c(C)cc(C)cc2C)s1`, the IC50 is 0.17 µM in assay [2] and 240 nM in assay [1].
In [2], `Cc1cccc(C(C)(C)C)c1NC(=O)c1sc(NC(=O)OC(C)(C)C)nc1C` had an IC50 of more than 50 µM.
In turn, `Cc1cc(C)c(NC(=O)c2cnc(NC(=O)C3CC3)s2)c(C)c1` displayed an IC50 in [1] of 18 nM.
On to `Cc1cc(Br)cc(C)c1NC(=O)c1sc(NC(=O)OC(C)(C)C)nc1C`, for which the concentration for half-maximal inhibition (IC50) in [3] was 1.4 µM; in assay [4] it was 2.4 µM.
Consider `Cc1cc(C)c(NC(=O)c2sc(NC(=O)OC(C)(C)C)nc2-c2ccccc2)c(C)c1`, for which the IC50 in [1] is more than 30000 nM.
The molecule `Cc1nc(NC(=O)OC(C)(C)C)sc1C(=O)NCC1CCCCC1` registered an IC50 in assay [2] of more than 50 µM.
Regarding `Cc1nc(NC(=O)OC(C)(C)C)sc1C(=O)Nc1ccccc1[N+](=O)[O-]`, the IC50 in assay [2] was more than 50 µM.
Still for that read-out and setting: next, `Cc1nc(NC(=O)OC(C)(C)C)sc1C(=O)Nc1ccccc1`: more than 50 µM.
Consider `Cc1cc(C)c(N(C)C(=O)c2sc(NC(=O)OC(C)(C)C)nc2C)c(C)c1`, for which the IC50 entry in assay [5] and in assay [6] was “Not Active” throughout.
Take `Cc1cc(C)c(NC(=O)c2sc(NC(=O)OC(C)(C)C)nc2C)c(C)c1`: the results for the IC50 in assay [3] and in assay [4] were 1.5 µM and 3 µM, respectively.
